The compounds below were run against T1, Serine racemase (Homo sapiens, UniProt Q9GZT4) (assay: Inhibition of wild-type serine racemase (unknown origin) assessed as residual activity by measuring D-serine level using […] as substrate and PLP as co-factor pretreated for 30 mins followed by substrate and co-factor addition measured after 30 mins).
T1 sequence (Q9GZT4 whole entry): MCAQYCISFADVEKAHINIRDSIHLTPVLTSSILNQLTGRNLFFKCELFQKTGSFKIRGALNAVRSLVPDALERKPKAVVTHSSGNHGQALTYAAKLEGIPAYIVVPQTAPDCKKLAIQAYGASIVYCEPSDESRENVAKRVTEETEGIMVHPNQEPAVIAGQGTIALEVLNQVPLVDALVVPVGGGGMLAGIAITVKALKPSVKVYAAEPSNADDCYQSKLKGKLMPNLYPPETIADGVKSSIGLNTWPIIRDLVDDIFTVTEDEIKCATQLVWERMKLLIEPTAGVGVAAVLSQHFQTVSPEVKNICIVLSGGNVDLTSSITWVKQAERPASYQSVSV

Row | Compound | IC50 [µM]
1 | COc1ccccc1SCCC(=O)OCC(=O)Nc1ccc(NC(C)=O)cc1 | 836

The compounds below were run against T2, Serine racemase (Homo sapiens) (UniProt Q9GZT4) (assay: Inhibition of wild-type serine racemase (unknown origin) assessed as residual activity by measuring D-serine level at 1 mM using […] as substrate and PLP as co-factor pretreated for 30 mins followed by substrate and co-factor addition measured after 30 mins relative to control).
T2 sequence (whole entry): T1 sequence (Q9GZT4 whole entry)

Row | Compound | Activity [%]
2 | COc1ccc(SCCC(=O)OCC(=O)Nc2ccc(NC(C)=O)cc2)cc1 | 65
3 | COc1ccccc1SCCC(=O)NCC(=O)Nc1ccc(NC(C)=O)cc1 | 100
4 | COc1cccc(SCCC(=O)OCC(=O)Nc2ccc(NC(C)=O)cc2)c1 | 61
5 | CC(=O)Nc1ccc(NC(=O)C(C)OC(=O)CCSc2ccccc2Cl)cc1 (centres undefined) | 49
6 | CC(=O)c1ccc(NC(=O)NNC(=O)Cc2ccc(Cl)c(Cl)c2)cc1 | 56
7 | CC(=O)Nc1ccc(NC(=O)CNC(=O)CCSc2ccccc2Cl)cc1 | 100
8 | CCc1ccccc1NC(=O)C(C)OC(=O)CCSc1ccccc1Cl (centres undefined) | 91
9 | CC(=O)Nc1ccc(NC(=O)COC(=O)CCSc2ccccc2Cl)cc1 | 84
10 | CC(=O)Nc1ccc(NC(=O)C(C)NC(=O)CCSc2ccccc2Cl)cc1 (centres undefined) | 52
11 | CC(=O)Nc1ccc(NC(=O)COC(=O)CCSc2cccc(Cl)c2)cc1 | 100
12 | COc1ccccc1SCCC(=O)NC(C)C(=O)Nc1ccc(NC(C)=O)cc1 (centres undefined) | 92
13 | CC(OC(=O)CCSc1ccccc1Cl)C(=O)Nc1ccccc1 (centres undefined) | 91
14 | COc1ccccc1CCCC(=O)OCC(=O)Nc1ccc(NC(C)=O)cc1 | 76
15 | CC(=O)Nc1ccc(NC(=O)COC(=O)CCSc2ccccc2)cc1 | 72
16 | CC(=O)Nc1ccc(NC(=O)COC(=O)CCSc2ccccc2F)cc1 | 55
17 | COc1ccccc1CCCC(=O)CCC(=O)Nc1ccc(NC(C)=O)cc1 | 100
18 | CC(=O)Nc1ccc(NC(=O)COC(=O)CCOc2ccccc2F)cc1 | 88
19 | COc1ccccc1SCCC(=O)OCC(=O)Nc1ccc(NC(C)=O)cc1 | 36

Reference: ChEMBL document CHEMBL4184097, “Design, synthesis, and evaluation of novel inhibitors for wild-type human serine racemase” (Bioorg Med Chem Lett, 2018)
